Test results: patent US4459404A, “Amides of retinoic acids with 5-amino tetrazole” (BASF Aktiengesellschaft, priority 1980, dated 1984)
pIC50: −log10 of the molar value. Where two headings read alike, the source gives them in different places.

What was measured:
[1] = tested on: comedones induced by coal tar (rabbit ear model); assay: Comedolytic activity in a rabbit ear model; type: in vivo, albino rabbit; conditions: topical, two weeks, decrease in comedones vs control ear
Procedure: Comedo formation was induced by topical application (0.5 ml), once daily, of 5% coal tar in Polyan® (an ester of lanolin alcohol and linoleic acid, from Amerchol Corp., USA) to both ears of albino rabbits on 5 successive days per week, for two weeks. Following this, the test substance, in a 70:30 volume/volume alcohol:propylene glycol mixture, was applied topically, in an amount of 0.5 ml, to the inner surface of one ear of each rabbit once daily on 5 consecutive days per week, for two weeks. The contra-lateral ear of each rabbit served as an untreated control.
Following a subsequent treatment (~72 hours) with the test substance, the rabbits were sacrificed. A sample of skin, of about 6 cm^2, was removed from the pinna of each ear just external to the auditory canal and was divided into pieces of about 1 cm^2.
These pieces of skin were immersed in water at 60° C. for 2 minutes. The epidermis was carefully peeled off using the flat end of a spatula and fine forceps, and was placed on a microscope slide, with the dermal side facing upward. After overnight airdrying, the slide was examined under the stereomicroscope. Follicular extensions of horny material remain intact. Comedones show up as discrete, uniformly shaped, cylindrical to global horny masses, whose size and number are proportional to the […].
The comedolytic effect was determined by the decrease in the number of comedones in comparison with the control ear.

[2] = tested on: male Sprague-Dawley CD rats; assay: Comparative oral toxicity in rats (inhibition of growth and lethality over two weeks); conditions: for Proportion of survivors, Day 6 / Proportion of survivors, Day 11: 25 μmole/day in corn oil with 4% chloroform; for Average weight, Day 6 / Average weight, Day 11: 25 μmole/day, initial weight 95-110 g; for Average weight, Day 6: Day 6, mean with standard deviation; for Average weight, Day 11: Day 11, mean with standard deviation
Procedure: 2. Comparative toxicity of all-E-N-(tetrazol-5-yl)-retinamide and 13-Z-N-(tetrazol-5-yl)-retinamide.
(a) Male Sprague-Dawley CD rats from Charles River (50-75 g) were randomized and weighed daily for one week before the start of the experiment. At the beginning of the toxicological screen the animals weighed 95-110 g.
(b) The vehicle for the test substances was corn oil containing 4% of chloroform. The dose was 25 μmole of test substance/day, in 0.5 ml of vehicle.

[3] = tested on: dorsal skin (erythema and scaling); design: species or system New Zealand white rabbit (male); conditions: rabbit, in vivo
Procedure: 4. Topical tolerance study of the test substances Six New Zealand white male rabbits were used in each study. Sites, each about 6 cm^2 in size, were shaved on the dorsal trunk of each test animal. The test substances were dissolved in a 70:30 volume/volume alcohol:propylene glycol mixture and 0.2 ml of the solution was applied topically from an automatic micropipette by gentle inunction to a pre-designated site twice daily, with an interval of six hours, for nine successive days. All sites were subjectively evaluated for erythema and scaling at the beginning of the test and before each morning application. A numerical grading scale of 0 to 3 was used (0=no reaction, 1=mild, 2=moderate, 3=severe).

[4] = tested on: keratinization of hamster tracheal epithelium (tracheal organ culture, vitamin A deficiency); assay: Reversal of keratinization in tracheal organ culture; type: cell-based; conditions: Mesocricetus auratus, 240 h, read-out: ED50 (molar dose effective in suppressing keratinization in one-half of the cultures)
From the text: This keratinization is inhibited, after initiation by chemical compounds, through the use of high energy radiation, or after viral cell transformation, through the use of the novel compounds of the formula (I). The method is described in Cancer Res. 36 (1976), 964-972, Nature 250 (1974), 64-66 and Nature 253 (1975), 47-50.
This assay measures the intrinsic ability of the novel compounds to control epithelial cell differentiation. The significant predictive value of this screening procedure for the potential use of a novel retinoid in the prevention of epithelial tissue tumors is generally accepted. At the same time it is known that any in vitro test system has disadvantages for the prediction of in vivo activity. Apart from these fundamental limitations, the tracheal organ culture assay is one of the most valuable procedures for evaluating the biological activity of a novel retinoid.
The assay procedure determines the ability of the two compounds to reverse keratinization in a defined in vitro system. Tracheas from hamsters in a very early stage of vitamin A deficiency were placed in organ culture. At that time, the animals were 29-30 days old (having been weaned at 21 days) and were still gaining some weight. Their average weight was 47-52 g. Their tracheal epithelium was generally low columnar or cuboidal, with only occasional patches of squamous metaplasia. Each trachea was opened from the larynx to the carina along the membranous dorsal wall and placed in culture in a serum-free medium (CMRL-1066 supplemented with crystalline bovine insulin, 1.0 μg/ml; hydrocortisone hemisuccinate, 0.1 μg/ml; glutamine, 2 mM; penicillin, 100 units/ml; and streptomycin, 100 μg/ml). The cultures were gassed with a mixture of 50% of oxygen, 45% of nitrogen and 5% of carbon dioxide. The culture dishes were rocked through 35.5-36.0 degrees to contact the tracheas with both gas and medium. All tracheas were maintained in medium containing no retinoid for the first 3 days. At the end of the 3 days, some tracheas were harvested. Almost all of these tracheas had significant squamous metaplasia. […]

the organism = conditions: in vivo; cited from earlier work
liver = conditions: use in therapy; cited from earlier work
[5] = hamster tracheal organ culture, serum-free medium, 10 days, extrapolated from dose-response curves

Row | Structure (SMILES) | % comedolytic activity ([1]; 0.1% concentration) [%] | Proportion of survivors, Day 6 [2] | Proportion of survivors, Day 11 [2] | Average weight, Day 6 [2] | Average weight, Day 11 [2] | Rating erythema [3] | Rating scaling [3] | mean erythema [3] | mean scaling [3] | pIC50 [4, 5] | % comedolytic activity ([1]; 0.025% concentration) [%] | toxic effects (the organism) | % comedolytic activity ([1]; 0.05% concentration) [%] | pIC50 [4] | liver retinoid concentration and organ damage (liver)
1 | CC1=C(/C=C/C(C)=C/C=C/C(C)=C\C(=O)Nc2nnn[nH]2)C(C)(C)CCC1 [13-Z-N--(tetrazol-5-yl)-retinamide, 13-Z-N-(tetrazol-5-yl)-retinamide] | 39.4 | 2/5 | 2/5 | 122 ± 18 | 140 ± 27 | mild | none | 0.5 | 0.1 | 9.70 |  |  |  |  | 
2 | CC1=C(/C=C/C(C)=C/C=C/C(C)=C\C(=O)O)C(C)(C)CCC1 [13-Z-retinoic acid, reference compound] |  |  |  |  |  | severe | severe | 3.0 | 3.0 |  |  |  |  |  | 
3 | CC1=C(/C=C/C(C)=C/C=C/C(C)=C/C(=O)Nc2nnn[nH]2)C(C)(C)CCC1 [all-E-N--(tetrazol-5-yl)-retinamide, all-E-N-(tetrazol-5-yl)-retinamide] |  | 3/4 | 3/4 | 124 ± 6 | 155 ± 4 | mild | none | 0.8 | 0 | 10.00 | 35.1 |  |  |  | 
4 | CC1=C(/C=C/C(C)=C/C=C/C(C)=C/C(=O)O)C(C)(C)CCC1 [all-E-retinoic acid, reference compound] |  | 3/5 | 0/5 | 95 ± 2 |  | moderate | moderate | 2.3 | 1.9 |  |  | even slightly increased doses cause severe damage to the organism, for example with symptoms of hypervitaminosis-A | 58.3 | 10.52 | 
5 | CC1=C(/C=C/C(C)=C/C=C/C(C)=C/CO)C(C)(C)CCC1 [retinol] |  |  |  |  |  |  |  |  |  |  |  |  |  |  | intolerably high retinoid concentration in the liver leads to severe and irreversible damage to the organ
6 | CC(=O)OC/C=C(C)/C=C/C=C(C)/C=C/C1=C(C)CCCC1(C)C [retinyl acetate] |  |  |  |  |  |  |  |  |  |  |  |  |  |  | intolerably high retinoid concentration in the liver leads to severe and irreversible damage to the organ
